Reference: PMC10601206, “Adaptive laboratory evolution of Rhodococcus rhodochrous DSM6263 for chlorophenol degradation under hypersaline condition” (Microbial Cell Factories, 2023)

What was measured:
[1] = target: T1, PheA1A2 (PheA2A1, phenol monooxygenase) (Rhodococcus rhodochrous, UniProt A0ABY1MEQ0); assay: HPLC of substrate depletion, product by LC-MS; assay type: cell-based; conditions: whole E. coli BL21(DE3) cells expressing PheA1A2, OD600 15, 100 mM PBS, 0.5 mM 4-chlorophenol; ortho hydroxylation
T1 construct: gene SAMN02745947_03917; both components co-expressed from pET28a in E. coli BL21(DE3), whole cells; with Phenol 2-monooxygenase, flavin reductase component
T1 sequence (A0ABY1MEQ0 1-537): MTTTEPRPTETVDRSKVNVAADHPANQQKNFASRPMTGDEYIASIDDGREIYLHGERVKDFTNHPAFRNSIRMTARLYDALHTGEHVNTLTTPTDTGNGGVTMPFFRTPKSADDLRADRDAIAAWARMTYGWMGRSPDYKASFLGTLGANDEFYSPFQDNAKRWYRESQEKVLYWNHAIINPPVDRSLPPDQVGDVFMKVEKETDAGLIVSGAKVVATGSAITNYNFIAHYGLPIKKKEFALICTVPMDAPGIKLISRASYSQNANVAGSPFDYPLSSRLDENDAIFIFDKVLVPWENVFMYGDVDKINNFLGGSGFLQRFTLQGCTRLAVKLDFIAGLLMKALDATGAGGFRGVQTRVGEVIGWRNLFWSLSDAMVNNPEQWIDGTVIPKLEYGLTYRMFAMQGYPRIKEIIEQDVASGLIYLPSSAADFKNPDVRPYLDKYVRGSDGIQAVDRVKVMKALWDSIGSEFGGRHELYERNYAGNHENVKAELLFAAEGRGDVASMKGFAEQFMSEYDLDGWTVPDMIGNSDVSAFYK

[2] = target: T1, PheA1A2 (PheA2A1, phenol monooxygenase); assay: HPLC of substrate depletion; assay type: cell-based; conditions: whole E. coli BL21(DE3) cells expressing PheA1A2; ortho hydroxylation

Compound	HPLC of substrate depletion, product by LC-MS [1]	HPLC of substrate depletion [2]
Oc1ccc(Cl)cc1 [4-chlorophenol]	The ortho hydroxylation enzyme activity to phenol, 4-chlorophenol	
Oc1ccccc1 [phenol]		The ortho hydroxylation enzyme activity to phenol, 4-chlorophenol
